System: L. acidophilus NCFM
Assay: RNA-seq transcriptional analysis of L. acidophilus NCFM growing on plant glycosides
Type: cell-based, Lactobacillus acidophilus
[1] = gene LBA0282 (Hypothetical protein)
[2] = gene LBA0327 (Replication protein)
[3] = gene LBA0328 (Hypothetical protein)
[4] = gene LBA0330 (Hypothetical protein)
[5] = gene LBA0457 (Hypothetical protein)
[6] = gene LBA0485 (Hypothetical protein)
[7] = gene LBA0486 (Hypothetical protein)
[8] = gene LBA0487 (Hypothetical protein.)
[9] = gene LBA0492 (Hypothetical protein)
[10] = gene LBA0541 (Cadmium-transporting ATPase)
[11] = gene LBA0542 (Putative heavy-metal-transporting alpase)
[12] = gene LBA0543 (Hypothetical protein)
[13] = gene LBA0544 (Transcriptional regulator)
[14] = gene LBA0555 (Myosin-crossreactive antigen)
[15] = gene LBA0564 (HAD family hydrolase)
[16] = gene LBA0574 (ABC multi drug exporter)
[17] = gene LBA0575 (ABC multi drug exporter)
[18] = gene LBA0604 (Immunity protein)
[19] = gene LBA0605 (Putative hydrolase)
[20] = gene LBA0608 (Hypothetical protein)
[21] = gene LBA0631 (Hypothetical protein)
[22] = gene LBA0649 (Myosin-crossreactive antigen)
[23] = gene LBA0728 (Hypothetical protein LBA0728)
[24] = gene LBA1025 (Aldo/keto reductase family oxidoreductase)
[25] = gene LBA1026 (Aldo/keto reduetase family oxidoreductase)
[26] = gene LBA1206 (Hypothetical protein)
[27] = gene LBA1401 (Peroxidase (Npx))
[28] = gene LBA1435 (Hypothetical protein)
[29] = gene LBA1455 (Putative surface layer protein)
[30] = gene LBA1469 (UDP-glucose 4-epimerase)
[31] = gene LBA1656 (Hypothetical protein)
[32] = gene LBA1675 (Hypothetical protein)
[33] = gene LBA1676 (ATP-dependent helicase)
[34] = gene LBA1683 (Putative magnesium-transporting atpase)
[35] = gene LBA1704 (N-Acetylmuramic acid-6-phosphate etherase)
[36] = gene LBA1740 (Hypothetical protein)
[37] = gene LBA1752 (Hypothetical protein)
[38] = gene LBA1769 (Hypothetical protein)
[39] = gene LBA1793 (Hypothetical protein)
[40] = gene LBA1869 (Beta-phosphoglueomutase)
[41] = gene LBA1895 (Hypothetical protein)
[42] = nTPM on plant glycoside relative to glucose, mid-exponential phase

N#C[C@H](O[C@@H]1O[C@H](CO[C@@H]2O[C@H](CO)[C@@H](O)[C@H](O)[C@H]2O)[C@@H](O)[C@H](O)[C@H]1O)c1ccccc1 [Amygdalin]
Log2 differential normalized TPM ratio compared to glucose [1]: 0.2
Log2 differential normalized TPM ratio compared to lactose [1]: −0.4
Transcripts per million (rpm) [1]: 20 rpm
Log2 differential normalized TPM ratio compared to glucose [2]: −0.9
Log2 differential normalized TPM ratio compared to lactose [2]: −1.1
Transcripts per million (rpm) [2]: 3.5 rpm
Log2 differential normalized TPM ratio compared to glucose [3]: −0.3
Log2 differential normalized TPM ratio compared to lactose [3]: −0.3
Transcripts per million (rpm) [3]: 9 rpm
Log2 differential normalized TPM ratio compared to glucose [4]: 0.1
Log2 differential normalized TPM ratio compared to lactose [4]: −0.2
Transcripts per million (rpm) [4]: 18.2 rpm
Log2 differential normalized TPM ratio compared to glucose [5]: 1.6
Log2 differential normalized TPM ratio compared to lactose [5]: 0.6
Transcripts per million (rpm) [5]: 1217.8 rpm
Log2 differential normalized TPM ratio compared to glucose [6]: 3.3
Log2 differential normalized TPM ratio compared to lactose [6]: 0.9
Transcripts per million (rpm) [6]: 1655 rpm
Log2 differential normalized TPM ratio compared to glucose [7]: 3.7
Log2 differential normalized TPM ratio compared to lactose [7]: 0.9
Transcripts per million (rpm) [7]: 2443 rpm
Log2 differential normalized TPM ratio compared to glucose [8]: 2.3
Log2 differential normalized TPM ratio compared to lactose [8]: 1
Transcripts per million (rpm) [8]: 132.1 rpm
Log2 differential normalized TPM ratio compared to glucose [9]: 5
Log2 differential normalized TPM ratio compared to lactose [9]: 2.6
Transcripts per million (rpm) [9]: 213.1 rpm
Log2 differential normalized TPM ratio compared to glucose [10]: 2
Log2 differential normalized TPM ratio compared to lactose [10]: −0.2
Transcripts per million (rpm) [10]: 119.7 rpm
Log2 differential normalized TPM ratio compared to glucose [11]: 2.2
Log2 differential normalized TPM ratio compared to lactose [11]: 0
Transcripts per million (rpm) [11]: 320.9 rpm
Log2 differential normalized TPM ratio compared to glucose [12]: 2.4
Log2 differential normalized TPM ratio compared to lactose [12]: 0
Transcripts per million (rpm) [12]: 283.1 rpm
Log2 differential normalized TPM ratio compared to glucose [13]: 1.9
Log2 differential normalized TPM ratio compared to lactose [13]: −0.1
Transcripts per million (rpm) [13]: 321.3 rpm
Log2 differential normalized TPM ratio compared to glucose [14]: 6
Log2 differential normalized TPM ratio compared to lactose [14]: 4.1
Transcripts per million (rpm) [14]: 2251.5 rpm
Log2 differential normalized TPM ratio compared to glucose [15]: 2.3
Log2 differential normalized TPM ratio compared to lactose [15]: 1.8
Transcripts per million (rpm) [15]: 4.1 rpm
Log2 differential normalized TPM ratio compared to glucose [16]: −1.2
Log2 differential normalized TPM ratio compared to lactose [16]: −1.5
Transcripts per million (rpm) [16]: 31.9 rpm
Log2 differential normalized TPM ratio compared to glucose [17]: −1
Log2 differential normalized TPM ratio compared to lactose [17]: −1.2
Transcripts per million (rpm) [17]: 32.6 rpm
Log2 differential normalized TPM ratio compared to glucose [18]: 2
Log2 differential normalized TPM ratio compared to lactose [18]: 1.6
Transcripts per million (rpm) [18]: 49.6 rpm
Log2 differential normalized TPM ratio compared to glucose [19]: 3.6
Log2 differential normalized TPM ratio compared to lactose [19]: 2.6
Transcripts per million (rpm) [19]: 26.3 rpm
Log2 differential normalized TPM ratio compared to glucose [20]: 3.1
Log2 differential normalized TPM ratio compared to lactose [20]: 2
Transcripts per million (rpm) [20]: 239.3 rpm
Log2 differential normalized TPM ratio compared to glucose [21]: 7.2
Log2 differential normalized TPM ratio compared to lactose [21]: 4
Transcripts per million (rpm) [21]: 141786.9 rpm
Log2 differential normalized TPM ratio compared to glucose [22]: 2.9
Log2 differential normalized TPM ratio compared to lactose [22]: 2.1
Transcripts per million (rpm) [22]: 228.6 rpm
Log2 differential normalized TPM ratio compared to glucose [23]: 6
Log2 differential normalized TPM ratio compared to lactose [23]: 4.2
Transcripts per million (rpm) [23]: 129.5 rpm
Log2 differential normalized TPM ratio compared to glucose (gene LBA0861 (Polyferredoxin)): 0
Log2 differential normalized TPM ratio compared to lactose (gene LBA0861 (Polyferredoxin)): −0.5
Transcripts per million (rpm) (gene LBA0861 (Polyferredoxin)): 153 rpm
Log2 differential normalized TPM ratio compared to glucose (gene LBA1023 (Oxidoreductase)): −1.5
Log2 differential normalized TPM ratio compared to lactose (gene LBA1023 (Oxidoreductase)): −1.8
Transcripts per million (rpm) (gene LBA1023 (Oxidoreductase)): 18.8 rpm
Log2 differential normalized TPM ratio compared to glucose [24]: −1.8
Log2 differential normalized TPM ratio compared to lactose [24]: −1.8
Transcripts per million (rpm) [24]: 7.2 rpm
Log2 differential normalized TPM ratio compared to glucose [25]: −1.7
Log2 differential normalized TPM ratio compared to lactose [25]: −2.1
Transcripts per million (rpm) [25]: 8.1 rpm
Log2 differential normalized TPM ratio compared to glucose (gene LBA1027 (Oxidoreductase)): 2.9
Log2 differential normalized TPM ratio compared to lactose (gene LBA1027 (Oxidoreductase)): 1.4
Transcripts per million (rpm) (gene LBA1027 (Oxidoreductase)): 3613.2 rpm
Log2 differential normalized TPM ratio compared to glucose [26]: 3.2
Log2 differential normalized TPM ratio compared to lactose [26]: 2
Transcripts per million (rpm) [26]: 984.2 rpm
Log2 differential normalized TPM ratio compared to glucose [27]: 4.4
Log2 differential normalized TPM ratio compared to lactose [27]: 2.3
Transcripts per million (rpm) [27]: 1161.2 rpm
Log2 differential normalized TPM ratio compared to glucose [28]: 7.1
Log2 differential normalized TPM ratio compared to lactose [28]: 3.3
Transcripts per million (rpm) [28]: 468.3 rpm
Log2 differential normalized TPM ratio compared to glucose [29]: 2.4
Log2 differential normalized TPM ratio compared to lactose [29]: 0.8
Transcripts per million (rpm) [29]: 73.9 rpm
Log2 differential normalized TPM ratio compared to glucose [30]: 2.4
Log2 differential normalized TPM ratio compared to lactose [30]: −2.6
Transcripts per million (rpm) [30]: 385.3 rpm
Log2 differential normalized TPM ratio compared to glucose [31]: 2.6
Log2 differential normalized TPM ratio compared to lactose [31]: 2.1
Transcripts per million (rpm) [31]: 103.5 rpm
Log2 differential normalized TPM ratio compared to glucose [32]: 2.1
Log2 differential normalized TPM ratio compared to lactose [32]: 0.6
Transcripts per million (rpm) [32]: 1397.9 rpm
Log2 differential normalized TPM ratio compared to glucose [33]: 1.9
Log2 differential normalized TPM ratio compared to lactose [33]: 0.7
Transcripts per million (rpm) [33]: 953.4 rpm
Log2 differential normalized TPM ratio compared to glucose [34]: 2
Log2 differential normalized TPM ratio compared to lactose [34]: 2.3
Transcripts per million (rpm) [34]: 53.6 rpm
Log2 differential normalized TPM ratio compared to glucose [35]: 2.1
Log2 differential normalized TPM ratio compared to lactose [35]: 1.4
Transcripts per million (rpm) [35]: 23 rpm
Log2 differential normalized TPM ratio compared to glucose [36]: 0.1
Log2 differential normalized TPM ratio compared to lactose [36]: −0.7
Transcripts per million (rpm) [36]: 15.4 rpm
Log2 differential normalized TPM ratio compared to glucose [37]: 0.8
Log2 differential normalized TPM ratio compared to lactose [37]: 0
Transcripts per million (rpm) [37]: 12.1 rpm
Log2 differential normalized TPM ratio compared to glucose [38]: 3
Log2 differential normalized TPM ratio compared to lactose [38]: 1.2
Transcripts per million (rpm) [38]: 10240.4 rpm
Log2 differential normalized TPM ratio compared to glucose [39]: 2.3
Log2 differential normalized TPM ratio compared to lactose [39]: −0.5
Transcripts per million (rpm) [39]: 67 rpm
Log2 differential normalized TPM ratio compared to glucose (gene LBA1796 (ABC exporter)): 2.4
Log2 differential normalized TPM ratio compared to lactose (gene LBA1796 (ABC exporter)): −0.1
Transcripts per million (rpm) (gene LBA1796 (ABC exporter)): 39.3 rpm
Log2 differential normalized TPM ratio compared to glucose [40]: 6.7
Log2 differential normalized TPM ratio compared to lactose [40]: 4.2
Transcripts per million (rpm) [40]: 670.5 rpm
Log2 differential normalized TPM ratio compared to glucose [41]: 2.8
Log2 differential normalized TPM ratio compared to lactose [41]: 2.6
Transcripts per million (rpm) [41]: 152.2 rpm
Log2 Ratio vs Glc, LBA0225 Phospho-β-glucosidase (GH1) [42]: 6.5
Log2 Ratio vs Glc, LBA0227 PTS EIIC [42]: 9.9
Log2 Ratio vs Glc, LBA0228 Transcriptional regulator [42]: 6.3
Log2 Ratio vs Glc, LBA0466 Phosphoenolpyruvate carboxykinase (ATP) [42]: 5.2
Log2 Ratio vs Glc, LBA0491 PTS EIIC [42]: 4.7
Log2 Ratio vs Glc, LBA0492 Hypothetical protein [42]: 5
Log2 Ratio vs Glc, LBA0555 Myosin-cross-reactive antigen/Fatty acid hydratase [42]: 6
Log2 Ratio vs Glc, LBA0606 PTS EIIBC [42]: 4.9
Log2 Ratio vs Glc, LBA0631 Hypothetical protein [42]: 7.2
Log2 Ratio vs Glc, LBA0724 Transcriptional regulator (antiterminator) [42]: 6.4
Log2 Ratio vs Glc, LBA0725 PTS EIICBA [42]: 9.7
Log2 Ratio vs Glc, LBA0726 Phospho-β-glucosidase (GH1) [42]: 7.2
Log2 Ratio vs Glc, LBA0728 Hypothetical protein [42]: 6
Log2 Ratio vs Glc, LBA0876 PTS EIIC [42]: 4.4
Log2 Ratio vs Glc, LBA0877 PTS EIIA [42]: 4.6
Log2 Ratio vs Glc, LBA1401 Peroxidase (Npx) [42]: 4.4
Log2 Ratio vs Glc, LBA1411 Fumarate reductase flavoprotein subunit [42]: 4
Log2 Ratio vs Glc, LBA1433 Dihydroxyacetone kinase [42]: 6
Log2 Ratio vs Glc, LBA1434 Dihydroxyacetone kinase [42]: 6.7
Log2 Ratio vs Glc, LBA1435 Hypothetical protein [42]: 7.1
Log2 Ratio vs Glc, LBA1436 Glycerol uptake facilitator protein [42]: 7.2
Log2 Ratio vs Glc, LBA1632 NAD-dependent aldehyde dehydrogenase [42]: 4.4
Log2 Ratio vs Glc, LBA1684 PTS EIIA [42]: 6.6
Log2 Ratio vs Glc, LBA1689 Maltose-6′-phosphate glucosidase (GH4) [42]: 5.3
Log2 Ratio vs Glc, LBA1701 Melibiose operon regulatory protein [42]: 5.3
Log2 Ratio vs Glc, LBA1709 Mucus binding protein precursor [42]: 4.5
Log2 Ratio vs Glc, LBA1797 Hypothetical protein [42]: 4.7
Log2 Ratio vs Glc, LBA1812 α-Glucosidase II (GH31) [42]: 5.3
Log2 Ratio vs Glc, LBA1869 β-Phosphoglucomutase [42]: 6.7
Log2 Ratio vs Glc, LBA1871 Neopullulanase (GH13) [42]: 4.3
Log2 Ratio vs Glc, LBA1873 Acetate kinase [42]: 4.6
Log2 Ratio vs Glc, LBA1974 Pyruvate oxidase [42]: 5.5

Reference: patent US20200222474A1, “COMPOSITIONS AND METHODS FOR INCREASING PHYTOCHEMICAL BIOAVAILABLITY AND BIOACTIVITY” (North Carolina State University, priority 2017, published 2020)
